The numbers were not newly measured in patent publication US11440912B2, “Process for the preparation of ribociclib and its salts” (FRESENIUS KABI ONCOLOGY LIMITED, priority 2017, dated 2022), which cites them from elsewhere.

For the data set the following is noted: at 80% RH.

Turning to `CN(C)C(=O)c1cc2cnc(Nc3ccc(N4CCNCC4)cn3)nc2n1C1CCCC1.O=C(O)CCC(=O)O` [ribociclib succinate], the “ribociclib succinate converts to hydrated form from the non-hydrated form” value is recorded as 0.52%.
